Data from patent US11685732B2, “MYST family histone acetyltransferase inhibitors” (Epizyme, Inc., priority 2017, dated 2023).
Read-outs that look alike come from different tables or passages of the source.

Assays:
KAT-7 = KAT-7 (Homo sapiens (Human), UniProt O95251); test: KAT-7 biochemical inhibition assay (SAMDI mass spectrometry)
Procedure: (§1) KAT-7. Enzyme assay buffer was 50 mM Tris pH 8.0, 0.002% Tween20, 0.005% bovine skin gelatin, and 1 mM dithiothreitol (DTT). For determination of IC50 values, compounds were serially diluted with 2% (v/v) DMSO in the final reaction, pre-incubating each dilution of each compound with 40 μL of assay buffer containing KAT-7 enzyme (6 nM final concentration). 10 μL of assay buffer containing 1 μM peptide substrate and 2 μM acetyl coenzyme A (final concentrations) was added. Reactions (50 μL total) were then carried out at 25° C. for 120 minutes. Reactions were terminated by the addition of 0.5% formic acid (final concentration), and a sample of each reaction was analyzed by SAMDI Tech, Inc. (Chicago, Ill.) using self-assembled monolayer desorption/ionization time-of-flight mass spectrometry (Mrksich, M. (2008) Mass spectrometry of self-assembled monolayers: a new tool for molecular surface science. ACS Nano 2, 7-18).

KAT-6A = KAT-6A (Homo sapiens (Human), UniProt Q92794); test: KAT-6A biochemical inhibition assay (SAMDI mass spectrometry)
Chain of KAT-6A (Q92794 other isoform, or with tags, fused parts or gaps): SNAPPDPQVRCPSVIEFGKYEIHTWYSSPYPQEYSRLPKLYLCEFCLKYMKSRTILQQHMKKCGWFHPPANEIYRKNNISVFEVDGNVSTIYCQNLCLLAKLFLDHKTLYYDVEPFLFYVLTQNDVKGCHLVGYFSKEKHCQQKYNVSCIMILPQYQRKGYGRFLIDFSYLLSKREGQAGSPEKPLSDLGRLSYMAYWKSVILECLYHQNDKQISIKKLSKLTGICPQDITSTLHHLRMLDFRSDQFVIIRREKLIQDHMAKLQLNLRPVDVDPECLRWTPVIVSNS
How it was run: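 IC50 values came from SAMDI time-of-flight mass spectrometry after formic acid quench (0.5% final). Acetylation ran 90 min at 25 °C with 1 μM acetyl coenzyme A and 1 μM peptide substrate, following compound pre-incubation with 12.5 nM KAT-6A in Tris buffer pH 8.0 containing DTT, 2% DMSO final.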

KAT-8 = KAT-8 (Homo sapiens (Human), UniProt Q9H7Z6); test: KAT-8 biochemical inhibition assay (SAMDI mass spectrometry)
Chain of KAT-8 (Q9H7Z6 other isoform, or with tags, fused parts or gaps): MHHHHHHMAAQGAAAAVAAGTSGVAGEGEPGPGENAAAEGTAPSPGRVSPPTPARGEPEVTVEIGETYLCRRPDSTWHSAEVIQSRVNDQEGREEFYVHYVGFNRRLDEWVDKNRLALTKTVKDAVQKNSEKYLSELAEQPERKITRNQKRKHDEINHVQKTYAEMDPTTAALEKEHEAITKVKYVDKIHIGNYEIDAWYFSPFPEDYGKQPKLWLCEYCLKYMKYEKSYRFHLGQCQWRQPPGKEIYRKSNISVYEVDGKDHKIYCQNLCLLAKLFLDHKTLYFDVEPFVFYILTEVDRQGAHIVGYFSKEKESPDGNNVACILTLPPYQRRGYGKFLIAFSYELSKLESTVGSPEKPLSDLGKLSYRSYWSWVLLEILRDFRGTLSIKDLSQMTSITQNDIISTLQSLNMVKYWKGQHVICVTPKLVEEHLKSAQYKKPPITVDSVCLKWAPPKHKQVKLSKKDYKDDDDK
Procedure: as §1, with “KAT-8. Enzyme” for “KAT-7. Enzyme”, “containing KAT-8” for “containing KAT-7”, “enzyme (12.5” for “enzyme (6”, “and 5” for “and 2”, “for 90” for “for 120”

KAT-5 = KAT-5 (Homo sapiens (Human), UniProt Q92993); test: KAT-5 biochemical inhibition assay (SAMDI mass spectrometry)
Chain of KAT-5 (Q92993 other isoform, or with tags, fused parts or gaps): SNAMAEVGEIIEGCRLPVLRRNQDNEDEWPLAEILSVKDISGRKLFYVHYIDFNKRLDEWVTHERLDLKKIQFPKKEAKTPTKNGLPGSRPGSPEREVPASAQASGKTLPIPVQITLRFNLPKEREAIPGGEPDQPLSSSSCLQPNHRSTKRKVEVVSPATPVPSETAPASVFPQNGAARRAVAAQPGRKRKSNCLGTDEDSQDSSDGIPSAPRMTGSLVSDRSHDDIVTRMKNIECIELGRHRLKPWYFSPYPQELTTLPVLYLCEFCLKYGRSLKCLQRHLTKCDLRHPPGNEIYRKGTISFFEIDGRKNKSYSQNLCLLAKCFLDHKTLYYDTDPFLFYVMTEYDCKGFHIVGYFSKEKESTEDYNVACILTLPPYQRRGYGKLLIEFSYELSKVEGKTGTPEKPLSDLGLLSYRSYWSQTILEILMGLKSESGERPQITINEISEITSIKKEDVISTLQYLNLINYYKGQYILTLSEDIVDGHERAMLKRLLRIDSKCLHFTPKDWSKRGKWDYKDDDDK
How it was run: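 Acetylation of 1 μM peptide by 9 nM enzyme with 0.5 μM acetyl-CoA (final) was run 90 min at 25° C in Tris pH 8.0 buffer with DTT, after compound preincubation at 2% DMSO. Formic acid stopped the reaction, and product was quantified by SAMDI mass spectrometry to derive IC50.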

Chain of KAT-7 (O95251 other isoform, or with tags, fused parts or gaps): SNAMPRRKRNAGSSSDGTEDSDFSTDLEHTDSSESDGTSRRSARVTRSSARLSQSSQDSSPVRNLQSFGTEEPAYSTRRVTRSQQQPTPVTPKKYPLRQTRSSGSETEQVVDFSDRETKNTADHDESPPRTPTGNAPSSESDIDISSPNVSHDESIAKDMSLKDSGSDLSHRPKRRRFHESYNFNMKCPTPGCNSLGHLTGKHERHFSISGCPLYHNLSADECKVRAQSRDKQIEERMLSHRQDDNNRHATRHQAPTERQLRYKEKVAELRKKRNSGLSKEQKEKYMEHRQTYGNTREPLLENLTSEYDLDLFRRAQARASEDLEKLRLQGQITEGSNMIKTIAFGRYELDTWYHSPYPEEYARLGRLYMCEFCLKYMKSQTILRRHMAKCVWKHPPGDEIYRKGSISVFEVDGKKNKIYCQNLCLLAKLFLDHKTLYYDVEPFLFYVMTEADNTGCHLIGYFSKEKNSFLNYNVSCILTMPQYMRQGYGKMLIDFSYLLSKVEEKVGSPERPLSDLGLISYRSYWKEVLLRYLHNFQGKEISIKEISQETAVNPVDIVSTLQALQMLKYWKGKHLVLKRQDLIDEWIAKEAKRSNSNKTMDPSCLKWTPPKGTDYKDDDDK

| SMILES | IC50 (KAT-7) [µM] | IC50 (KAT-6A) [µM] | IC50 (KAT-8) [µM] | IC50 (KAT-5) [µM] | IC50 (KAT-7; Table 6, comparative compounds) [µM] | IC50 (KAT-6A; Table 6, comparative compounds) [µM] | IC50 (KAT-8; Table 6, comparative compounds) [µM] | IC50 (KAT-5; Table 6, comparative compounds) [µM] |
| --- | --- | --- | --- | --- | --- | --- | --- | --- |
| CCC1CC(CS(=O)(=O)NNC(=O)c2cc(-c3cn(C)cn3)cc(Cl)c2F)CC1=O (centres unmarked) [Compound I-255] | < 10 | 10 to 50 | 10 to 50 | 10 to 50 | – | – | – | – |
| Cn1cnc(-c2cc(Cl)c(F)c(C(=O)NNS(=O)(=O)c3cscn3)c2)c1 [Compound I-304] | < 10 | < 10 | 10 to 50 | < 10 | – | – | – | – |
| Cc1cc(-c2ccccc2)cc(C(=O)NNS(=O)(=O)CC2CCCN(C(=O)OC(C)(C)C)C2)c1F (single isomer, unassigned) [C, reference compound] | – | – | – | – | 10 to 50 | ≤ 10 | > 100 | ≤ 10 |
| CC(C)S(=O)(=O)NNC(=O)c1cc(-c2cn(C)cn2)cc(Cl)c1F [Compound I-14] | 10 to 50 | > 100 | > 100 | 50 to 100 | – | – | – | – |
| Cn1cnc(-c2cc(Cl)c(F)c(C(=O)NNS(=O)(=O)CC3CCC4CCC3N4C(=O)OC(C)(C)C)c2)c1 (centres unmarked) [Compound I-250] | < 10 | 10 to 50 | 10 to 50 | < 10 | – | – | – | – |
| CN(C)C(=O)CS(=O)(=O)NNC(=O)c1cc(-c2cn(C)cn2)cc(Cl)c1F [Compound I-314] | < 10 | 10 to 50 | 10 to 50 | 10 to 50 | – | – | – | – |
| Cc1ncn(C)c1-c1cc(Cl)c(F)c(C(=O)NNS(=O)(=O)CC2CCCCC2)c1 [Compound I-45] | 50 to 100 | > 100 | > 100 | > 100 | – | – | – | – |
| CNC(=O)N[C@H]1CC[C@H](CS(=O)(=O)NNC(=O)c2cc(-c3cn(C)cn3)cc(Cl)c2F)CC1 [Compound I-176] | < 10 | < 10 | 10 to 50 | < 10 | – | – | – | – |
| Cc1cc(-c2cn(C)cn2)cc(C(=O)NNS(=O)(=O)C2CCOCC2)c1F [Compound I-131] | < 10 | 10 to 50 | > 100 | 10 to 50 | – | – | – | – |
| Cn1cnc(-c2cc(Cl)c(F)c(C(=O)NNS(=O)(=O)c3cccc(Cl)c3)c2)c1 [Compound I-324] | < 10 | < 10 | 10 to 50 | < 10 | – | – | – | – |
| CCNC(=O)N[C@H]1C[C@H](CS(=O)(=O)NNC(=O)c2cc(-c3cn(C)cn3)cc(Cl)c2F)C1 [Compound I-112] | < 10 | 10 to 50 | 10 to 50 | < 10 | – | – | – | – |
| CN(C)C(=O)N[C@H]1CC[C@@H](CS(=O)(=O)NNC(=O)c2cc(-c3cn(C)cn3)cc(Cl)c2F)CC1 [Compound I-163] | < 10 | < 10 | 10 to 50 | < 10 | – | – | – | – |
| Cn1cnc(-c2cc(Cl)c(F)c(C(=O)NNS(=O)(=O)c3ccccn3)c2)c1 [Compound I-330] | < 10 | < 10 | 10 to 50 | < 10 | – | – | – | – |
| CC(C)C(=O)N[C@H]1CC[C@H](CS(=O)(=O)NNC(=O)c2cc(-c3cn(C)cn3)cc(Cl)c2F)CC1 [Compound I-201] | < 10 | < 10 | 10 to 50 | < 10 | – | – | – | – |
| Cc1cc(-c2cn(C(C)C)cn2)cc(C(=O)NNS(=O)(=O)C2CCCCC2)c1F [Compound I-139] | < 10 | > 100 | > 100 | 10 to 50 | – | – | – | – |
| Cc1ncc(-c2cc(Cl)c(F)c(C(=O)NNS(=O)(=O)CC3CCOCC3)c2)n1C [Compound I-30] | > 100 | > 100 | > 100 | > 100 | – | – | – | – |
| COCCOc1cccc(S(=O)(=O)NNC(=O)c2cc(-c3cn(C)cn3)cc(Cl)c2F)c1 [Compound I-368] | < 10 | < 10 | 10 to 50 | < 10 | – | – | – | – |
